# Laboratory results from patent publication US8815503B2, “Compositions and methods for immunostimulatory RNA oligonucleotides” (Rheinische Friedrich-Wilhelms-Universitat Bonn, priority 2005, dated 2014).
# Legend:
# [1] = test system: PBMC; test: IL-12p70 production in PBMC stimulated with complexed RNA oligonucleotides or TLR ligands, ELISA of supernatant after 24 hours; assay type: cell-based, human; settings: for IL-12p70 production within PBMC: TLR ligands at optimal concentrations, RNA complexed with poly-L-arginine
# Description: FIG. 5: PBMC from three different healthy donors were isolated and stimulated with the following stimuli (form left to right): medium, Poly I:C (10 μg/ml), LPS (1 μg/ml), 3M-001 (1 μM), 3M-007 (1 μM), R848 (5 μg/ml), 3M-002 (1 μM), CpG ODN2216 (3 μg/ml), (the following stimuli were all complexed using poly-L-arginine 88) medium, polyA ssRNA, poly U ssRNA, polyA/U dsRNA, polyc ssRNA, polyG ssRNA, poly C/G dsRNA, 9.1 sense ssRNA, 9.1antisene ssRNA, 9.1duplex dsRNA, 9.2sense ssRNA, 9.2 antisene ssRNA, 9.2duplex dsRNA, 9.3sense ssRNA, 9.3antisene ssRNA and 9.3duplex dsRNA. 24 hours after stimulation supernatants were harvested and analyzed for IL-12p70 (A) and TNF-a (B) production. Data from three individual donors were summarized and depicted as mean values ±SEM. […]
# [2] = test system: PBMC; test: 193 ssRNA 4mer-motif library screen: IL-12 (IL-12p40) production in PBMC of six donors, poly-L-Arg complexation, ELISA at 44 hours, IL-12 index and adjusted IL-12 index; assay type: cell-based, human; parameters: key to Adjusted IL-12 index Mean: IL-12 index (ratio to 9.2sense) minus donor mean, averaged over 6 donors; settings: for IL-12 in supernatant, mean of the two raw values of the duplicates: poly-L-Arg complexed, 44 hours; for Adjusted IL-12 index Mean: 193 ssRNA oligonucleotide library, data from six individual donors summarized, ascending order
# In short: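 Human PBMC from six healthy donors were stimulated in duplicate with poly-L-arginine-complexed ssRNA oligonucleotides, and IL-12p40 in supernatant was measured by ELISA at 44 h. Each value was divided by the 9.2sense control on the same plate (IL-12 index), then the donor's mean index was subtracted; adjusted indices are means ± SEM over donors.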
Compound,Adjusted IL-12 index Mean [2],other results
"5′-AGCUUAACCUGUCCUUCAA-3′ (RNA, backbone not given here) [9.2sense, standard ssRNA oligonucleotide, positive control on all cell culture plates]",,"IL-12p70 production, absolute value ([1]; donor 1, complexed with poly-L-arginine of approx. 88 amino acids): 1390 pg/mL; IL-12p70 production, absolute value ([1]; donor 2, complexed with poly-L-arginine of approx. 88 amino acids): 396 pg/mL; IL-12 in supernatant, mean of the two raw values of the duplicates ([2]; donor 3): 908 pg/mL"
CCCc1nc2c(N)nc3ccccc3c2s1 [3M-002],,IL-12p70 production within PBMC [1]: able to induce IL-12p70 production
CCOCc1nc2c(N)nc3ccccc3c2n1CC(C)(C)O [R848],,IL-12p70 production within PBMC [1]: able to induce IL-12p70 production
"AAAAAAAUAAUAAAAAAAA (RNA, backbone not given here) [ANP-Oligo 148]",0.7,
"AAAAAAAUACCAAAAAAAA (RNA, backbone not given here) [ANP-Oligo 149]",0.27,
"AAAAAAAUACGAAAAAAAA (RNA, backbone not given here) [ANP-Oligo 150]",−0.3,
"AAAAAAAUACUAAAAAAAA (RNA, backbone not given here) [ANP-Oligo 151]",0.3,
"AAAAAAAUAGCAAAAAAAA (RNA, backbone not given here) [ANP-Oligo 152]",0.35,
"AAAAAAAUAGGAAAAAAAA (RNA, backbone not given here) [ANP-Oligo 153]",0.42,
"AAAAAAAUAGUAAAAAAAA (RNA, backbone not given here) [ANP-Oligo 154]",1.57,adjusted IL-12 index ([2]; summarized from all six donors): 1.57
"AAAAAAAUAUCAAAAAAAA (RNA, backbone not given here) [ANP-Oligo 155]",0.33,
"AAAAAAAUAUGAAAAAAAA (RNA, backbone not given here) [ANP-Oligo 156]",0.27,
"AAAAAAAUAUUAAAAAAAA (RNA, backbone not given here) [ANP-Oligo 157]",0.46,
"AAAAAAAUCACAAAAAAAA (RNA, backbone not given here) [ANP-Oligo 158]",−0.39,
"AAAAAAAUCAGAAAAAAAA (RNA, backbone not given here) [ANP-Oligo 159]",−0.28,
"AAAAAAAUCAUAAAAAAAA (RNA, backbone not given here) [ANP-Oligo 160]",0.1,
"AAAAAAAUCCCAAAAAAAA (RNA, backbone not given here) [ANP-Oligo 161]",−0.42,
"AAAAAAAUCCGAAAAAAAA (RNA, backbone not given here) [ANP-Oligo 162]",−0.5,
"AAAAAAAUCCUAAAAAAAA (RNA, backbone not given here) [ANP-Oligo 163]",−0.15,
"AAAAAAAUCGCAAAAAAAA (RNA, backbone not given here) [ANP-Oligo 164]",−0.1,
"AAAAAAAUCGGAAAAAAAA (RNA, backbone not given here) [ANP-Oligo 165]",−0.26,
"AAAAAAAUCGUAAAAAAAA (RNA, backbone not given here) [ANP-Oligo 166]",4.42,adjusted IL-12 index ([2]; summarized from all six donors): 4.42
"AAAAAAAUCUCAAAAAAAA (RNA, backbone not given here) [ANP-Oligo 167]",0.37,
"AAAAAAAUCUGAAAAAAAA (RNA, backbone not given here) [ANP-Oligo 168]",0.45,
"AAAAAAAUCUUAAAAAAAA (RNA, backbone not given here) [ANP-Oligo 169]",0.67,
"AAAAAAAUGACAAAAAAAA (RNA, backbone not given here) [ANP-Oligo 170]",0.86,

Compound,Adjusted IL-12 index Mean [2],other results
"AAAAAAAUGAGAAAAAAAA (RNA, backbone not given here) [ANP-Oligo 171]",0.22,
"AAAAAAAUGAUAAAAAAAA (RNA, backbone not given here) [ANP-Oligo 172]",1.92,
"AAAAAAAUGCCAAAAAAAA (RNA, backbone not given here) [ANP-Oligo 173]",1.22,
"AAAAAAAUGCGAAAAAAAA (RNA, backbone not given here) [ANP-Oligo 174]",0.28,
AAAAAAAUGCUAAAAAAAA (chemistry not given here) [ANP-Oligo 175],1.85,"adjusted IL-12 index ([2]; donor 3, IL-12 index minus mean of all IL-12 indices of the donor): 1.46; IL-12 in supernatant, mean of the two raw values of the duplicates ([2]; donor 3): 1725 pg/mL; IL-12 index ([2]; donor 3, ratio to RNA9.2sense): 1.90"
"AAAAAAAUGGCAAAAAAAA (RNA, backbone not given here) [ANP-Oligo 176]",2.41,
"AAAAAAAUGGGAAAAAAAA (RNA, backbone not given here) [ANP-Oligo 177]",−0.35,
"AAAAAAAUGGUAAAAAAAA (RNA, backbone not given here) [ANP-Oligo 178]",3.26,adjusted IL-12 index ([2]; summarized from all six donors): 3.26
"AAAAAAAUGUCAAAAAAAA (RNA, backbone not given here) [ANP-Oligo 179]",0.9,
"AAAAAAAUGUGAAAAAAAA (RNA, backbone not given here) [ANP-Oligo 180]",1.31,
"AAAAAAAUGUUAAAAAAAA (RNA, backbone not given here) [ANP-Oligo 181]",0.79,
"AAAAAAAUUACAAAAAAAA (RNA, backbone not given here) [ANP-Oligo 182]",0.11,
"AAAAAAAUUAGAAAAAAAA (RNA, backbone not given here) [ANP-Oligo 183]",0.27,
"AAAAAAAUUAUAAAAAAAA (RNA, backbone not given here) [ANP-Oligo 184]",0.56,
"AAAAAAAUUCCAAAAAAAA (RNA, backbone not given here) [ANP-Oligo 185]",−0.08,
"AAAAAAAUUCGAAAAAAAA (RNA, backbone not given here) [ANP-Oligo 186]",−0.08,
"AAAAAAAUUCUAAAAAAAA (RNA, backbone not given here) [ANP-Oligo 187]",0.18,
"AAAAAAAUUGCAAAAAAAA (RNA, backbone not given here) [ANP-Oligo 188]",1.62,
"AAAAAAAUUGGAAAAAAAA (RNA, backbone not given here) [ANP-Oligo 189]",0.66,
"AAAAAAAUUGUAAAAAAAA (RNA, backbone not given here) [ANP-Oligo 190]",1.6,adjusted IL-12 index ([2]; summarized from all six donors): 1.6
"AAAAAAAUUUCAAAAAAAA (RNA, backbone not given here) [ANP-Oligo 191]",0.27,
"AAAAAAAUUUGAAAAAAAA (RNA, backbone not given here) [ANP-Oligo 192]",0.65,
"AAAAAAAUUUUAAAAAAAA (RNA, backbone not given here) [ANP-Oligo 193]",0.62,
polyA,,IL-12p70 production within PBMC [1]: no activity; IL-12p70 production within PBMC ([1]; listed as poly adenosine RNA oligonucleotides): completely inactive; IL-12p70 production within PBMC ([1]; listed as poly adenosine oligonucleotides): inactive
polyC,,IL-12p70 production within PBMC [1]: no activity
polyU,,IL-12p70 production within PBMC [1]: slight yet consistent IL-12 response
